Test results reported in patent publication EP0364584A1, “ANTIDOTE FOR ORGANIC PHOSPHORUS COMPOUND POISONING” (priority 1988, dated 1989).
Like-named read-outs stand apart in the source and are kept apart here.

Experiments:
[1] = target: T1, Azetylcholinesterase des menschlichen Bluts (Homo sapiens, UniProt P22303); assay: Reactivation in vitro of erythrocyte cholinesterase inhibited by organophosphorus compounds (potentiometric titration); assay type: biochemical; details: reactivator 1.10^-4 M01/1, 25°C, pH 7,5
T1 construct: Cholinesterase des Grundgerüstes der Erythrozyten des menschlichen Bluts; from tissue; host or cells: human erythrocyte stroma (ghosts)

[2] = Content of the drugs in blood and brain after intramuscular administration (Askew method); assay type: in vivo, Ratten; details: rat, im, Ratten; for concentration at 2 h: 2 St., read-out: Konzentration (µg/g) 2 St. (converted); for concentration at 5 min: read-out: Konzentration (µg/g) 5 min; for concentration at 20 min: read-out: Konzentration (µg/g) 20 min (converted); for concentration at 0.5 h: 30 min, read-out: Konzentration (µg/g) 30 min; for concentration at 1 h: I St., read-out: Konzentration (µg/g) I St.; for concentration at 10 min: IO min, read-out: Konzentration (µg/g) IO min (converted)
Procedure: Mit Hilfe der Methode von Askew (1956) wurde in der Dynamik der Gehalt des erfindungsgemäßen Arzneimittels im Blut und Gehirn der Tiere untersucht. Die Untersuchungen wurden im Vergleich zum bekannten Präparak TMB-4 vorgenommen. Die Geschwindigkeit des Eindringens beider Präparate ins Blut und deren Konzentration wurden bei der-intramuskulären Einführung in Dosen von 20 ..und 50 mg/kg und der Gehirnspiegel - in einer Dosis von 50 mg/kg bestimmt. […]
Es wurde festgestellt, daß die Präparate schnell (nach 5 min) von der Einführungsstelle ins Blut eindringen, dabei wurde unabhängig von der Prüfdosis der Präparate deren Maximalgehalt im Blut 20 min nach der Einführung beobachtet, zwar erhöhte die Vergrößerung der Dosis der Präparate bis 50 mg/kg wesentlich deren Konzentrationsniveau während der ganzen Beobachtungsfrist.
Die im Vergleich zu TMB-4 durchgeführten Untersuchungen haben ergeben, dass während der ersten Stunde der Blutgehalt und das Anwachsen der Konzentrationen beider Präparate gleich waren. […] Die Untersuchungsergebnisse sind in der Tabelle 3 angeführt.
Nach den Ergebnissen der durchgeführten Untersuchungen wurde festgestellt, dass das erfindungsgemässe Arz- neimittel bei der intramuskulären Einführung schnell ins Blut und Gehirn des Tieres eindringt und zum Unterschied von TMB-4 eine längere Zeit im 3lutstrom zirkuliert und von 5 min an bis 4 Stunden Beobachtung im Gehirn in bedeutend grösseren Mengen enthalten ist.

[3] = blood, Blut, Dosis 20 mg/kg intramuskulär
[4] = blood, Blut, Dosis 50 mg/kg intramuskulär
[5] = brain, Gehirn, Dosis 50 mg/kg intramuskulär

T1 sequence (P22303 other isoform, or with tags, fused parts or gaps): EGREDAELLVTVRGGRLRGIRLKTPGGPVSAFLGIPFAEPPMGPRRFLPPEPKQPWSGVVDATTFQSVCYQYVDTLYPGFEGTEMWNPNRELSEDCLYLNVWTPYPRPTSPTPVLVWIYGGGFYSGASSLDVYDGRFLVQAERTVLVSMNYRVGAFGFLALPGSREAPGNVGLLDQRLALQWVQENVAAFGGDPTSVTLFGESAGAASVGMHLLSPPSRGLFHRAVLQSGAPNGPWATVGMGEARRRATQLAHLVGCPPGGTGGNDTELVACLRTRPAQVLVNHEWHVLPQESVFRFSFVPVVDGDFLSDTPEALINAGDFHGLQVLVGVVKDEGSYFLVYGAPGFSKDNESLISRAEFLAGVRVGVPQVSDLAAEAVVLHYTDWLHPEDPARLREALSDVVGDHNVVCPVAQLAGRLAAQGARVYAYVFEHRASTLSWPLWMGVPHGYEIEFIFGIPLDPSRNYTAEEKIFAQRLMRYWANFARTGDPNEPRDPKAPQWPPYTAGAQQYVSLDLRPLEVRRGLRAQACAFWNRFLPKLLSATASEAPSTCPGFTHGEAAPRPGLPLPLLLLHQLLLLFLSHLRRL

## ON=Cc1cc[n+](CCC[n+]2ccc(C=NO)cc2)cc1 [TMB-4, Trimethylen-1,3-bis-(4-oxyiminomethylpyridinium)bromid, reference compound]
[1]; 0.5 h, pH 7, inhibited with O,O-Dimethyl-(2,2,2-trichlor-1-oxyäthyl) phosphonat, 0,5 h, read-out: Aktivität der Azetylcholinesterase in % (Reaktivationszeit in Stunden) 0,5
  activity at 100 µM: 40%
[1]; 0.5 h, pH 7, inhibited with O,O-Dimethyl-S-(1,2-dikarbäthoxyäthyl)-dithiophosphat, 0,5 h, read-out: Aktivität der Azetylcholinesterase in % (Reaktivationszeit in Stunden) 0,5
  activity at 100 µM: 27.4%
[1]; 1 h, pH 7, inhibited with O,O-Dimethyl-(2,2,2-trichlor-1-oxyäthyl) phosphonat, 1 h, read-out: Aktivität der Azetylcholinesterase in % (Reaktivationszeit in Stunden) 1
  activity at 100 µM: 51%
[1]; 1 h, pH 7, inhibited with O,O-Dimethyl-S-(1,2-dikarbäthoxyäthyl)-dithiophosphat, 1 h, read-out: Aktivität der Azetylcholinesterase in % (Reaktivationszeit in Stunden) 1
  activity at 100 µM: 43%
[1]; 2 h, pH 7, inhibited with O,O-Dimethyl-(2,2,2-trichlor-1-oxyäthyl) phosphonat, 2 h, read-out: Aktivität der Azetylcholinesterase in % (Reaktivationszeit in Stunden) 2
  activity at 100 µM: 64.2%
[1]; 2 h, pH 7, inhibited with O,O-Dimethyl-S-(1,2-dikarbäthoxyäthyl)-dithiophosphat, 2 h, read-out: Aktivität der Azetylcholinesterase in % (Reaktivationszeit in Stunden) 2
  activity at 100 µM: 52.9%
[2]; [3]
  concentration at 2 h: 0.41 µg/g
  concentration at 5 min: 3.6 µg/g
  concentration at 20 min: 4.85 µg/g
  concentration at 0.5 h: 4.35 µg/g
  concentration at 1 h: 2.75 µg/g
  concentration at 10 min: 4.42 µg/g
[2]; [4]
  concentration at 2 h: 2.42 µg/g
  concentration at 5 min: 16.6 µg/g
  concentration at 20 min: 18.4 µg/g
  concentration at 0.5 h: 15.1 µg/g
  concentration at 1 h: 11.5 µg/g
  concentration at 10 min: 21.1 µg/g
[2]; blood, Blut, Dosis 50 mg/kg intramuskulär, 3 St., read-out: Konzentration (µg/g) 3 St.
  concentration at 3 h: 1.95 µg/g
[2]; [5]
  concentration at 2 h: 0.34 µg/g
  concentration at 5 min: 0.86 µg/g
  concentration at 20 min: 2.32 µg/g
  concentration at 0.5 h: 2.28 µg/g
  concentration at 1 h: 1.5 µg/g
  concentration at 10 min: 0.98 µg/g
